Values after ≈ are worked out from the molar mass of the structure shown. Active and inactive are the calls of the source. No rule for the calls is given here.
Tested on: Staphylococcus aureus
Experiment: Antibacterial activity against Staphylococcus aureus 134/93 after 24 hrs by broth microdilution method
Format: functional
Settings: not given

Compound	-logMIC
CCCc1ccc2[nH]c(-c3ccc(OC)cc3)c(C3=C(Br)C(=O)NC3=O)c2c1	6.3
CCCCCOc1ccc2[nH]c(-c3ccccc3)c(C3=C(Br)C(=O)NC3=O)c2c1	4.6
Cc1ccccc1NC(=O)CCCc1[nH]c2ccccc2c1C1=C(Br)C(=O)NC1=O	6.5
CCCCCOc1ccc(-c2[nH]c3ccccc3c2C2=C(Br)C(=O)NC2=O)cc1	6.1
O=C(CCc1[nH]c2ccccc2c1C1=C(Br)C(=O)NC1=O)Nc1ccccc1	6.7
CCc1ccc2[nH]c(-c3cccc(OC)c3)c(C3=C(Br)C(=O)NC3=O)c2c1	6.3
CCCCOc1ccc2[nH]c(-c3ccccc3)c(C3=C(Br)C(=O)NC3=O)c2c1	6.9
CCCCCCCCOc1ccc(-c2[nH]c3ccccc3c2C2=C(Br)C(=O)NC2=O)cc1	4.3
CCc1cccc2c(C3=C(Br)C(=O)NC3=O)c(-c3ccc(OC)cc3)[nH]c12	6.3

Same assay, conditions: Staphylococcus aureus, 134/93, 24 h

MIC [µM]	Compound
0.45 (≈ 0.198 µg/mL)	CCCc1ccc2[nH]c(-c3ccc(OC)cc3)c(C3=C(Br)C(=O)NC3=O)c2c1
27 (≈ 12.2 µg/mL)	CCCCCOc1ccc2[nH]c(-c3ccccc3)c(C3=C(Br)C(=O)NC3=O)c2c1
0.32 (≈ 0.149 µg/mL)	Cc1ccccc1NC(=O)CCCc1[nH]c2ccccc2c1C1=C(Br)C(=O)NC1=O
0.88 (≈ 0.399 µg/mL)	CCCCCOc1ccc(-c2[nH]c3ccccc3c2C2=C(Br)C(=O)NC2=O)cc1
0.18 (≈ 0.0789 µg/mL)	O=C(CCc1[nH]c2ccccc2c1C1=C(Br)C(=O)NC1=O)Nc1ccccc1
0.5 (≈ 0.213 µg/mL)	CCc1ccc2[nH]c(-c3cccc(OC)c3)c(C3=C(Br)C(=O)NC3=O)c2c1
0.11 (≈ 0.0483 µg/mL)	CCCCOc1ccc2[nH]c(-c3ccccc3)c(C3=C(Br)C(=O)NC3=O)c2c1
50 (≈ 24.8 µg/mL)	CCCCCCCCOc1ccc(-c2[nH]c3ccccc3c2C2=C(Br)C(=O)NC2=O)cc1
0.5 (≈ 0.213 µg/mL)	CCc1cccc2c(C3=C(Br)C(=O)NC3=O)c(-c3ccc(OC)cc3)[nH]c12

Tested on: not listed separately
Experiment: Partition coefficient, log P of the compound
Format: physicochemical
Settings: octanol/water

logP	Compound
3.45	CCCc1ccc2[nH]c(-c3ccc(OC)cc3)c(C3=C(Br)C(=O)NC3=O)c2c1
3.75	CCCCCOc1ccc2[nH]c(-c3ccccc3)c(C3=C(Br)C(=O)NC3=O)c2c1
2.56	Cc1ccccc1NC(=O)CCCc1[nH]c2ccccc2c1C1=C(Br)C(=O)NC1=O
4.2	CCCCCOc1ccc(-c2[nH]c3ccccc3c2C2=C(Br)C(=O)NC2=O)cc1
2.42	O=C(CCc1[nH]c2ccccc2c1C1=C(Br)C(=O)NC1=O)Nc1ccccc1
3.35	CCc1ccc2[nH]c(-c3cccc(OC)c3)c(C3=C(Br)C(=O)NC3=O)c2c1
3.42	CCCCOc1ccc2[nH]c(-c3ccccc3)c(C3=C(Br)C(=O)NC3=O)c2c1
5.21	CCCCCCCCOc1ccc(-c2[nH]c3ccccc3c2C2=C(Br)C(=O)NC2=O)cc1
3.35	CCc1cccc2c(C3=C(Br)C(=O)NC3=O)c(-c3ccc(OC)cc3)[nH]c12

Tested on: Escherichia coli
Experiment: Antibacterial activity against Escherichia coli after 24 hrs by broth microdilution method
Format: functional, organism-based
Settings: not given

Compound	Activity
CCCc1ccc2[nH]c(-c3ccc(OC)cc3)c(C3=C(Br)C(=O)NC3=O)c2c1	inactive
CCCCCOc1ccc2[nH]c(-c3ccccc3)c(C3=C(Br)C(=O)NC3=O)c2c1	inactive
Cc1ccccc1NC(=O)CCCc1[nH]c2ccccc2c1C1=C(Br)C(=O)NC1=O	inactive
CCCCCOc1ccc(-c2[nH]c3ccccc3c2C2=C(Br)C(=O)NC2=O)cc1	inactive
O=C(CCc1[nH]c2ccccc2c1C1=C(Br)C(=O)NC1=O)Nc1ccccc1	inactive
CCc1ccc2[nH]c(-c3cccc(OC)c3)c(C3=C(Br)C(=O)NC3=O)c2c1	inactive
CCCCOc1ccc2[nH]c(-c3ccccc3)c(C3=C(Br)C(=O)NC3=O)c2c1	inactive
CCCCCCCCOc1ccc(-c2[nH]c3ccccc3c2C2=C(Br)C(=O)NC2=O)cc1	inactive
CCc1cccc2c(C3=C(Br)C(=O)NC3=O)c(-c3ccc(OC)cc3)[nH]c12	inactive

Tested on: Mycolicibacterium smegmatis
Experiment: Antibacterial activity against Mycobacterium smegmatis SG987 after 24 hrs by broth microdilution method
Format: functional
Settings: not given

Compound	-logMIC
CCCc1ccc2[nH]c(-c3ccc(OC)cc3)c(C3=C(Br)C(=O)NC3=O)c2c1	5.7
CCCCCOc1ccc2[nH]c(-c3ccccc3)c(C3=C(Br)C(=O)NC3=O)c2c1	4.6
Cc1ccccc1NC(=O)CCCc1[nH]c2ccccc2c1C1=C(Br)C(=O)NC1=O	4.8
CCCCCOc1ccc(-c2[nH]c3ccccc3c2C2=C(Br)C(=O)NC2=O)cc1	3.9
O=C(CCc1[nH]c2ccccc2c1C1=C(Br)C(=O)NC1=O)Nc1ccccc1	4.7
CCc1ccc2[nH]c(-c3cccc(OC)c3)c(C3=C(Br)C(=O)NC3=O)c2c1	5.4
CCCCOc1ccc2[nH]c(-c3ccccc3)c(C3=C(Br)C(=O)NC3=O)c2c1	4.5
CCCCCCCCOc1ccc(-c2[nH]c3ccccc3c2C2=C(Br)C(=O)NC2=O)cc1	4
CCc1cccc2c(C3=C(Br)C(=O)NC3=O)c(-c3ccc(OC)cc3)[nH]c12	4.5

Same assay, conditions: Mycolicibacterium smegmatis, SG987, 24 h

MIC [µM]	Compound
1.8 (≈ 0.791 µg/mL)	CCCc1ccc2[nH]c(-c3ccc(OC)cc3)c(C3=C(Br)C(=O)NC3=O)c2c1
27.5 (≈ 12.5 µg/mL)	CCCCCOc1ccc2[nH]c(-c3ccccc3)c(C3=C(Br)C(=O)NC3=O)c2c1
17.1 (≈ 7.97 µg/mL)	Cc1ccccc1NC(=O)CCCc1[nH]c2ccccc2c1C1=C(Br)C(=O)NC1=O
126 (≈ 57.1 µg/mL)	CCCCCOc1ccc(-c2[nH]c3ccccc3c2C2=C(Br)C(=O)NC2=O)cc1
21 (≈ 9.2 µg/mL)	O=C(CCc1[nH]c2ccccc2c1C1=C(Br)C(=O)NC1=O)Nc1ccccc1
3.98 (≈ 1.69 µg/mL)	CCc1ccc2[nH]c(-c3cccc(OC)c3)c(C3=C(Br)C(=O)NC3=O)c2c1
28.4 (≈ 12.5 µg/mL)	CCCCOc1ccc2[nH]c(-c3ccccc3)c(C3=C(Br)C(=O)NC3=O)c2c1
100 (≈ 49.5 µg/mL)	CCCCCCCCOc1ccc(-c2[nH]c3ccccc3c2C2=C(Br)C(=O)NC2=O)cc1
29.4 (≈ 12.5 µg/mL)	CCc1cccc2c(C3=C(Br)C(=O)NC3=O)c(-c3ccc(OC)cc3)[nH]c12

Tested on: Candida albicans
Experiment: Antibacterial activity against Candida albicans after 24 hrs by broth microdilution method
Format: functional, organism-based
Settings: not given

Compound	Activity
CCCc1ccc2[nH]c(-c3ccc(OC)cc3)c(C3=C(Br)C(=O)NC3=O)c2c1	inactive
CCCCCOc1ccc2[nH]c(-c3ccccc3)c(C3=C(Br)C(=O)NC3=O)c2c1	inactive
Cc1ccccc1NC(=O)CCCc1[nH]c2ccccc2c1C1=C(Br)C(=O)NC1=O	inactive
CCCCCOc1ccc(-c2[nH]c3ccccc3c2C2=C(Br)C(=O)NC2=O)cc1	inactive
O=C(CCc1[nH]c2ccccc2c1C1=C(Br)C(=O)NC1=O)Nc1ccccc1	inactive
CCc1ccc2[nH]c(-c3cccc(OC)c3)c(C3=C(Br)C(=O)NC3=O)c2c1	inactive
CCCCOc1ccc2[nH]c(-c3ccccc3)c(C3=C(Br)C(=O)NC3=O)c2c1	inactive
CCCCCCCCOc1ccc(-c2[nH]c3ccccc3c2C2=C(Br)C(=O)NC2=O)cc1	inactive
CCc1cccc2c(C3=C(Br)C(=O)NC3=O)c(-c3ccc(OC)cc3)[nH]c12	inactive
